This is an account of results in patent US10562891B2, “Quinazolinones as PARP14 inhibitors” (Ribon Therapeutics Inc., priority 2017, dated 2020).

Structures are written as SMILES. Counter-ions that a name gives are not always drawn.

Sequence of catalytic domain of human PARP14 (Q460N5 1611-1801): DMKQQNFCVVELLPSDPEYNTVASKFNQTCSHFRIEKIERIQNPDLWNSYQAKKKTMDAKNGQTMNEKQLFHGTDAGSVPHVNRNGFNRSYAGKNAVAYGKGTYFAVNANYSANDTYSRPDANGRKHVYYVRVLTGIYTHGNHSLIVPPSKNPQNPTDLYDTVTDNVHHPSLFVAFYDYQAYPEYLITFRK

The assay concerns the target catalytic domain of human PARP14 (Homo sapiens (Human), UniProt Q460N5). Description: Enzymatic assay for inhibition of PARP14 (DELFIA, auto-modification with biotin-NAD). Type of assay: biochemical. The settings on record: auto-modification of PARP14 by biotin-NAD, 50 nM PARP14, 3 μM biotin-NAD. Here is the method:
An N-terminal His-TEV fusion tag was used to purify the protein from cell lysates. The His-TEV tag was left on the protein for use in the enzymatic assay.
Enzymatic inhibition of PARP14 was measured using a dissociation-enhanced lanthanide fluorescence immunoassay (DELFIA) monitoring the auto-modification of PARP14 by biotinylated nicotinamide adenine dinucleotide (biotin-NAD). 1 μL of a dose response curve of each test compound was spotted in 384-well nickel-coated white microplates (Thermo) using a Mosquito (TTP Labtech). Reactions were performed in a 50 μL volume by adding 40 μL of PARP14 in assay buffer (20 mM HEPES pH==8, 100 mM NaCl, 0.1% bovine serum albumin, 2 mM DTT and 0.002%0 Tween20), incubating with test compound at 25° C. for 30 min, then adding 10 μL of biotin-NAD (Biolog). The final concentrations of PARP14 and biotin-NAD are 50 nM and 3 μM, respectively. Reactions proceeded at 25° C. for 3 h, then were quenched with 5 μL of 10 mM unmodified nicotinamide adenine dinucleotide (Sigma-Aldrich). The quenched reactions were washed 3 times with 100 μL of TBST wash buffer (50 mM Tris-HCl, 150 mM NaCl and 0.1% Tween20). Next, to the washed and dried plate was added 25 μL of DELFIA Europium-N1 streptavidin (Perkin Elmer) diluted in DELFIA assay buffer (Perkin Elmer). After a 30 min incubation at 25° C., the plate was washed 5 times with TBST wash buffer. Finally, 25 μL of DELFIA enhancement solution was added. After a 5 min incubation the plate was read on an Envision platereader equipped with a LANCE/DELFIA top mirror (Perkin Elmer) using excitation of 340 nm and emission of 615 nm to measure the amount of Europium present in each well, informing on the amount of biotin-NAD that was transferred in the automodification reaction.
[formula] where ex615cmpd is the emission from the compound treated well, ex615min is the emission from the rucaparib treated positive control well and ex615max is the emission from the DMSO treated negative control well.
The % inhibition values were plotted as a function of compound concentration and the following 4-parameter fit was applied to derive the IC50 values:
[formula] where top and bottom are normally allowed to float, but may be fixed at 100 or 0 respectively in a 3-parameter fit. The Hill Coefficient is normally allowed to float but may also be fixed at 1 in a 3-parameter fit. Y is the % inhibition and X is the compound concentration.
What is called IC50 is the concentration that inhibits the measured activity by half. Higher therefore signals lower potency. Consider `O=c1[nH]c(CSC2CCOCC2)nc2cccnc12` [Example 36, 2-(((Tetrahydro-2H-pyran-4-yl)thio)methyl)pyrido[3,2-d]pyrimidin-4(3H)-one], for which the IC50 was over 10 µM.

In turn, `O=c1[nH]c(CSC2CCOCC2)nc2cnccc12` [Example 37, 2-(((Tetrahydro-2H-pyran-4-yl)thio)methyl)pyrido[3,4-d]pyrimidin-4(3H)-one] showed an IC50 of over 10 µM.

`Cc1cccc2c(=O)[nH]c(CS[C@H]3C[C@H](OCc4ccccc4)C3)nc12` [Example 38, 2-((((trans)-3-(Benzyloxy)cyclobutyl)thio)methyl)-8-methylquinazolin-4(3H)-one] had an IC50 of over 10 µM.

In the case of `Cc1cccc2c(=O)[nH]c(CSC3COC3)nc12` [Example 39, 8-Methyl-2-((oxetan-3-ylthio)methyl)quinazolin-4(3H)-one], the IC50 was over 10 µM.

Consider `O=c1[nH]c(CSC2CCOCC2)nc2ccncc12` [Example 40, 2-(((Tetrahydro-2H-pyran-4-yl)thio)methyl)pyrido[4,3-d]pyrimidin-4(3H)-one], for which the IC50 is over 10 µM.

Regarding `Cc1ccnc2c(=O)[nH]c(CSC3CCOCC3)nc12` [Example 41, 8-Methyl-2-(((tetrahydro-2H-pyran-4-yl)thio)methyl)pyrido[3,2-d]pyrimidin-4(3H)-one], the IC50 was over 10 µM.

On to `Cc1nccc2c(=O)[nH]c(CSC3CCOCC3)nc12` [Example 42, 8-Methyl-2-(((tetrahydro-2H-pyran-4-yl)thio)methyl)pyrido[3,4-d]pyrimidin-4(3H)-one], for which the IC50 is over 10 µM.

The molecule `O=c1[nH]c(CSC2CCOCC2)nc2ncccc12` [Example 43, 2-(((Tetrahydro-2H-pyran-4-yl)thio)methyl)pyrido[2,3-d]pyrimidin-4(3H)-one] displayed an IC50 of over 10 µM.

`Cc1cc(Cl)cc2c(=O)[nH]c(CSC3CCOCC3)nc12` [Example 44, 6-Chloro-8-methyl-2-(((tetrahydro-2H-pyran-4-yl)thio)methyl)quinazolin-4(3H)-one] displayed an IC50 of under 1 µM.

Regarding `O=c1[nH]c(CSC2CCOCC2)nc2c(F)c(F)ccc12` [Example 45, 7,8-Difluoro-2-(((tetrahydro-2H-pyran-4-yl)thio)methyl)quinazolin-4(3H)-one], the IC50 lay within 1 to 10 µM.

As for `O=c1[nH]c(CS[C@H]2CC[C@H](O)CC2)nc2cc(F)ccc12` [Example 46, 7-Fluoro-2-((((trans)-4-hydroxycyclohexyl)thio)methyl)quinazolin-4(3H)-one], the IC50 was in the range of 1 to 10 µM.

`Cc1cccc2c(=O)[nH]c(CS[C@H]3C[C@H](O)C3)nc12` [Example 47, 2-(((trans-3-Hydroxycyclobutyl)thio)methyl)-8-methylquinazolin-4(3H)-one] came in with an IC50 of 1 to 10 µM.

For `Cc1cccc2c(=O)[nH]c(CSC3CCCNC3)nc12` (centres unmarked) [Example 48, 8-Methyl-2-((piperidin-3-ylthio)methyl)quinazolin-4(3H)-one Hydrochloride], the IC50 lay in the range of 1 to 10 µM.

In turn, `Cc1cccc2c(=O)[nH]c(CS[C@H]3CC[C@H](N)CC3)nc12` [Example 49, 2-(((trans-4-Aminocyclohexyl)thio)methyl)-8-methylquinazolin-4(3H)-one Hydrochloride] showed an IC50 of 1 to 10 µM.

For the molecule `Cc1cccc2c(=O)[nH]c(CS[C@H]3CC[C@@H](N)CC3)nc12` [Example 50, 2-(((cis-4-Aminocyclohexyl)thio)methyl)-8-methylquinazolin-4(3H)-one Trifluoroacetic Acid], the IC50 was 1 to 10 µM.

For `Cc1ccc(F)c2c(=O)[nH]c(CSC3CCNCC3)nc12` [Example 51, 5-Fluoro-8-methyl-2-((piperidin-4-ylthio)methyl)quinazolin-4(3H)-one Hydrochloride], the IC50 was under 1 µM.

In turn, `Cc1cccc2c(=O)[nH]c(CS[C@H]3C[C@H](N)C3)nc12` [Example 52, 2-(((trans-3-Aminocyclobutyl)thio)methyl)-8-methylquinazolin-4(3H)-one Hydrochloride] returned an IC50 of 1 to 10 µM.
